Source: patent US11679107B2 (Eisai R&D Management Co., Ltd., priority 2018, dated 2023)
Read-outs that look alike come from different tables or passages of the source.

Assays:
[1] = tested on: Ad2 variant pre-mRNAs spliced in HeLa S3 nuclear extracts; assay: In vitro splicing assay (IVS), RT-qPCR of spliced product; type: biochemical; conditions: for IC50: geometric mean; for Ratio Ad2.1/2.2: ratio of IVS IC50 Ad2.1 to Ad2.2
Outline: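 Ad2 variant pre-mRNA (2 ng) with FTZΔi control RNA in HeLa S3 nuclear extract (8 μg) was pre-incubated with compound or DMSO for 15 min at 30 °C. Splicing ran 90 min at 30 °C after adding 0.5 mM ATP, creatine phosphate and MgCl2. Spliced product was quantified by TaqMan RT-qPCR, normalized to DMSO, and curve-fitted.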

SF3b complexes = biological target: T1, SF3b complexes (Homo sapiens, UniProt O75533+Q7RTV0); assay: Scintillation proximity assay (SPA) with [3H]-labelled pladienolide probe; type: binding; conditions: SF3B1 (WT); geometric mean; read-out: SPA-ATS GMean IC50 (nM) SF3B1 (WT)
T1 construct: endogenous in cells; host or cells: Nuclear extracts; A HeLa S3 extract preparation is described for the in vitro splicing assay
Outline: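 SF3b complexes captured from nuclear extracts on anti-SF3B1 antibody SPA beads; test compounds pre-incubated 30 min before 2.5 nM [3H]-pladienolide probe added, then 30 min incubation. Bound probe read by scintillation; values from non-linear regression of concentration–response curves.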

[2] = tested on: NCI-H1568 cells (high MCL1); assay: Cell proliferation and viability, CellTiter-Glo, 72 hours; type: cell-based; conditions: for GI50: geometric mean
Outline: (§1)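 Cells grown in RPMI-1640 with 10% FBS (Panc 05.04 with added insulin, 15% FBS total) were exposed to an 11-point half-log dilution, typically 10 μM–100 pM, at 0.1% DMSO for 72 h at 37 °C. ATP content was read by CellTiter-Glo luminescence. Percent inhibition was set against a time-zero plate and DMSO vehicle wells, on a −100% (cidal) to 100% (uninhibited growth) scale.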

[3] = tested on: Panc 05.04 cells (SF3b K700E mutant); assay: as above; type: cell-based; conditions: for GI50: geometric mean
Outline: as §1

[4] = Ad2.1 pre-mRNA substrate, read-out: qPCR-IVS-ATS GMean IC50 (nM) Ad2.1
[5] = Ad2.2 pre-mRNA substrate, read-out: qPCR-IVS-ATS GMean IC50 (nM) Ad2.2
[6] = NCI-H1568, read-out: CTGlo-ATS GMean GI50 (nM) 72 h NCIH1568.1, NCIH1568.1 cells, 72 h
[7] = NCIH1568.1 cells, 72 h, −100% cidal, 0% static, 100% maximal growth
[8] = PANC0504.1 cells, 72 h, −100% cidal, 0% static, 100% maximal growth
[9] = Panc 05.04, read-out: CTGlo-ATS GMean GI50 (nM) 72 h PANC0504.1, PANC0504.1 cells, 72 h
[10] = 72 h, NCIH1568.1, -100% = cidal, 0% = static, 100% = uninhibited growth
[11] = NCI-H1568, read-out: CTGlo-ATS GMean GI50 (nM) 72 h NCIH1568.1, 72 h, NCIH1568.1
[12] = 72 h, PANC0504.1, -100% = cidal, 0% = static, 100% = uninhibited growth
[13] = Panc 05.04, read-out: CTGlo-ATS GMean GI50 (nM) 72 h PANC0504.1, 72 h, PANC0504.1
[14] = NCI-H1568, 72 h, read-out: CTGlo-ATS GMean GI50 (nM) 72 h NCIH1568.1, NCIH1568.1 cells, 72 h
[15] = Panc 05.04, 72 h, read-out: CTGlo-ATS GMean GI50 (nM) 72 h PANC0504.1, PANC0504.1 cells, 72 h

| SMILES | IC50 [1, 4] | IC50 [1, 5] | IC50 (SF3b complexes) | GI50 [2, 6] | CTGlo-ATS Mean MinResponse % 72 h NCIH1568.1 [2, 7] | CTGlo-ATS Mean MinResponse % 72 h PANC0504.1 [3, 8] | GI50 [3, 9] | Ratio Ad2.1/2.2 [1] | CTGlo-ATS Mean MinResponse % 72 h NCIH1568.1 [2, 10] | GI50 [2, 11] | CTGlo-ATS Mean MinResponse % 72 h PANC0504.1 [3, 12] | GI50 [3, 13] | GI50 [2, 14] | GI50 [3, 15] | GI50 ([2]; NCI-H1568, 72 h, read-out: CTGlo-ATS GMean GI50 (nM) 72 h NCIH1568.1, 72 h, NCIH1568.1) | GI50 ([3]; Panc 05.04, 72 h, read-out: CTGlo-ATS GMean GI50 (nM) 72 h PANC0504.1, 72 h, PANC0504.1) |
| --- | --- | --- | --- | --- | --- | --- | --- | --- | --- | --- | --- | --- | --- | --- | --- | --- |
| CN[C@@H]1CCN(c2cccc(/C=C(\C)[C@H]3OC(=O)C[C@H](O)CC[C@H](C)[C@@H](OC(=O)N4CCN(C)CC4)/C=C/[C@@H]3C)c2)C1 [Compound 9] | 107 nM | 27 nM | 14.9 nM | 116 nM | −83.308% | −87.085% | 63.9 nM | – | – | – | – | – | – | – | – | – |
| C/C(=C\c1cc(F)c2nnn(C3CCOCC3)c2c1)[C@H]1OC(=O)C[C@H](O)CC[C@H](C)[C@@H](OC(=O)N2CCN(C)CC2)/C=C/[C@@H]1C [Compound 140] | 11.6 nM | 11.8 nM | 1.73 nM | 1.25 nM | −82.434% | −80.398% | 1.63 nM | – | – | – | – | – | – | – | – | – |
| C/C(=C\c1cncc(S(=O)(=O)N2CCCC2)c1)[C@H]1OC(=O)C[C@H](O)CC[C@H](C)[C@@H](OC(=O)N2CCN(C)CC2)/C=C/[C@@H]1C [Compound 205, [(2S,3S,4E,6R,7S,10R)-10-hydroxy-3,7-dimethyl-12-oxo-2-[(E)-1-(5-pyrrolidin-1-ylsulfonylpyridin-3-yl)prop-1-en-2-yl]-1-oxacyclododec-4-en-6-yl] 4-methylpiperazine-1-carboxylate] | > 25000 nM | 108 nM | 16.2 nM | – | – | – | – | 232.132 | −28.455% | 85.9 nM | −91.576% | 70.8 nM | – | – | – | – |
| COCC(=O)Nc1cc(F)cc(/C=C(\C)[C@H]2OC(=O)CC(O)CCC(C)[C@@H](OC(=O)N3CCN(C)CC3)/C=C/[C@@H]2C)c1 (stereo in doubt) [Compound 249, [(2S,3S,4E,6R,7R,10S)-2-[(E)-1-[3-fluoro-5-[(2-methoxyacetyl)amino]phenyl]prop-1-en-2-yl]-10-hydroxy-3,7-dimethyl-12-oxo-1-oxacyclododec-4-en-6-yl] 4-methylpiperazine-1-carboxylate] | 6350 nM | 33.6 nM | 5.16 nM | – | – | – | – | 188.921 | −49.016% | 14.5 nM | −93.297% | 13.8 nM | – | – | – | – |
| C/C(=C\c1ccc2nccn2c1)[C@H]1OC(=O)C[C@H](O)CC[C@H](C)[C@@H](OC(=O)N2CCN(C)CC2)/C=C/[C@@H]1C [Compound 88, [(2S,3S,4E,6R,7S,10R)-10-hydroxy-2-[(E)-1-imidazo[1,2-a]pyridin-6-ylprop-1-en-2-yl]-3,7-dimethyl-12-oxo-l-oxacyclododec-4-en-6-yl] 4-methylpiperazine-1-carboxylate] | > 25000 nM | 154 nM | 1.02 nM | – | −20.194% | −5.029% | – | – | – | – | – | – | 157 nM | 86.3 nM | – | – |
| C/C(=C\c1cc(F)cc(N2CCOCC2)c1)C1OC(=O)C[C@H](O)CC[C@H](C)[C@@H](OC(=O)N2CCN(C3CCOCC3)CC2)/C=C/[C@@H]1C (stereo partly shown) [Compound 36] | 236 nM | 32.9 nM | 3.49 nM | – | −54.389% | −84.494% | – | – | – | – | – | – | 25.4 nM | 19 nM | – | – |
| C=CS(=O)(=O)N1CCN(c2cc(F)cc(/C=C(\C)[C@H]3OC(=O)C[C@H](O)CC[C@H](C)[C@@H](OC(=O)N4CCN(C)CC4)/C=C/[C@@H]3C)c2)CC1 [Compound 74] | 34.5 nM | 20.8 nM | 4.88 nM | 4.69 nM | −99.528% | −64.747% | 13.1 nM | – | – | – | – | – | – | – | – | – |
| C/C(=C\c1cccc(N2CCCS2(=O)=O)c1)[C@H]1OC(=O)C[C@H](O)CC[C@H](C)[C@@H](OC(=O)N2CCN(C)CC2)/C=C/[C@@H]1C [Compound 49] | 16300 nM | 28.3 nM | 3.04 nM | – | −35.275% | −93.022% | – | – | – | – | – | – | 11.7 nM | 9.02 nM | – | – |
| CCNS(=O)(=O)c1cccc(/C=C(\C)[C@H]2OC(=O)CC(O)CCC(C)[C@@H](OC(=O)N3CCN(C)CC3)/C=C/[C@@H]2C)c1 (stereo in doubt) [Compound 210, [(2S,3S,4E,6R,7R,10S)-2-[(E)-1-[3-(ethylsulfamoyl)phenyl]prop-1-en-2-yl]-10-hydroxy-3,7-dimethyl-12-oxo-1-oxacyclododec-4-en-6-yl] 4-methylpiperazine-1-carboxylate] | 11000 nM | 32.7 nM | 4.35 nM | – | – | – | – | 336.112 | −51.154% | – | −96.896% | – | – | – | 17 nM | 27.8 nM |
| C/C(=C\c1cc(C)cc2[nH]ncc12)[C@H]1OC(=O)C[C@H](O)CC[C@H](C)[C@@H](OC(=O)N2CCN(C)CC2)/C=C/[C@@H]1C [Compound 96] | > 25000 nM | 108 nM | 2.4 nM | 305 nM | −29.687% | −14.554% | 168 nM | – | – | – | – | – | – | – | – | – |
| C/C(=C\c1cc(F)c2cn[nH]c2c1)[C@H]1OC(=O)C[C@H](O)CC[C@H](C)[C@@H](OC(=O)N2CCN(C)CC2)/C=C/[C@@H]1C [Compound 59] | 13600 nM | 46.1 nM | 2.75 nM | 14.5 nM | −44.526% | −95.512% | 17.5 nM | – | – | – | – | – | – | – | – | – |
| C/C(=C\c1cccc(N2CCN(CCO)CC2)c1)[C@H]1OC(=O)C[C@H](O)CC[C@H](C)[C@@H](OC(=O)N2CCC(N3CCCCC3)CC2)/C=C/[C@@H]1C [Compound 263, [(2S,3S,4E,6R,7S,10R)-10-hydroxy-2-[(E)-1-[3-[4-(2-hydroxyethyl)piperazin-1-yl]phenyl]prop-1-en-2-yl]-3,7-dimethyl-12-oxo-1-oxacyclododec-4-en-6-yl] 4-piperidin-1-ylpiperidine-1-carboxylate] | 93.6 nM | 25.5 nM | 37.7 nM | – | – | – | – | 3.677 | −67.601% | 102 nM | −88.783% | 64.5 nM | – | – | – | – |
| C/C(=C\c1cc(F)cc(N2CCOCC2)c1)[C@H]1OC(=O)C[C@H](O)CC[C@H](C)[C@@H](OC(=O)N2CCN(C)C(C)(C)C2)/C=C/[C@@H]1C [Compound 246, [(2S,3S,4E,6R,7S,10R)-2-[(E)-1-(3-fluoro-5-morpholin-4-ylphenyl)prop-1-en-2-yl]-10-hydroxy-3,7-dimethyl-12-oxo-1-oxacyclododec-4-en-6-yl] 3,3,4-trimethylpiperazine-1-carboxylate] | 279 nM | 36.1 nM | 5.8 nM | – | – | – | – | 7.730 | −68.331% | 12.1 nM | −95.467% | 16.5 nM | – | – | – | – |
| C/C(=C\c1cc(F)cc(N2CCN(C(=O)CN3CCOCC3)CC2)c1)[C@H]1OC(=O)C[C@H](O)CC[C@H](C)[C@@H](OC(=O)N2CCN(C)CC2)/C=C/[C@@H]1C [Compound 119] | 31 nM | 21.7 nM | 11.7 nM | 8.84 nM | −81.451% | −75.344% | 8.43 nM | – | – | – | – | – | – | – | – | – |
